# Measured values as given in BindingDB's records for doi:10.1016/s1074-5521(98)90632-9 (Merck Research Laboratories, 1998).
# Tests used:
# Beta-lactamase = target: T1, Beta-lactamase (Bacteroides fragilis, UniProt Q8KZP2); experiment: Metallo-Beta-Lactamase Assay; details: pH 7; 37 °C
# T1 sequence (Q8KZP2 whole entry): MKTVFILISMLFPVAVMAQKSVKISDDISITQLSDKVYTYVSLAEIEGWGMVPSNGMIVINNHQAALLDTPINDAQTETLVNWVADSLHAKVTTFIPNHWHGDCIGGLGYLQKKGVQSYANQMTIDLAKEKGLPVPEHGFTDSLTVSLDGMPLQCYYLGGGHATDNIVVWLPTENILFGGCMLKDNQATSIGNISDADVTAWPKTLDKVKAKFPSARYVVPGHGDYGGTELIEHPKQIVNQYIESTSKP
# Text: Enzyme inhibition assay by biphenyl tetrazoles (BPTS)using metallo-beta-lactamase.
# Dipeptidase 1 = target: T2, Dipeptidase 1 (Homo sapiens, UniProt P16444); experiment: Dehydropeptidase I Assay; details: pH 7; 37 °C
# T2 sequence (P16444 whole entry): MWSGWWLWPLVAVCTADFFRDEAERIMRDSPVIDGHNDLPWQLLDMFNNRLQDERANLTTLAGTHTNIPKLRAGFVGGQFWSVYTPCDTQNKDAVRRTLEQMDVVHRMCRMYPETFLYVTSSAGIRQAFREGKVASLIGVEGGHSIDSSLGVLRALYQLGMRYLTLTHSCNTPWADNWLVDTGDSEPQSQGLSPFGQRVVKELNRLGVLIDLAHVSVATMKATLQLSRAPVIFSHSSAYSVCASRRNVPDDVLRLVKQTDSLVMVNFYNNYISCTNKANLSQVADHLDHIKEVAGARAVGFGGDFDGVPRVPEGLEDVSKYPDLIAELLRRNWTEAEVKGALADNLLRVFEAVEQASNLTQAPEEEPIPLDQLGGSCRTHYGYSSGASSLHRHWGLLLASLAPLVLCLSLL
# Text: Enzyme inhibition assay by biphenyl tetrazoles (BPTS)using dehydropeptidase 1 (DPH-1).
SMILES,IC50 (Beta-lactamase) [µM],IC50 (Dipeptidase 1) [µM]
c1ccc(-c2nnn[nH]2)c(-c2ccc(Cn3cnc4cccnc43)cc2)c1 [L-809-558],42,> 250
"c1ccc(-c2nnn[nH]2)c(-c2ccc(Cn3cnc4ccccc43)cc2)c1 [L-808,509]",110,> 500
Cc1nc2ccccc2n1Cc1ccc(-c2ccccc2-c2nnn[nH]2)cc1 [L-809-559],4,> 250
CCCc1nc(CC)c(C=O)n1Cc1ccc(-c2ccccc2-c2nnn[nH]2)cc1,7,190
"C1=Cc2[nH]c3cc(OCc4ccc(-c5ccccc5-c5nnn[nH]5)cc4)ccc3c2CC1 [L-809,339]",42,> 100
"C1=Cc2c(c3ccccc3n2Cc2ccc(-c3ccccc3-c3nnn[nH]3)cc2)CC1 [L-161,189]",0.3,120
"CCCCc1nc2c(c(=O)n1Cc1ccc(-c3ccccc3-c3nnn[nH]3)cc1)SCC2 [L-159,906]",0.4,> 100
Cc1ccnc2c1nc(C(C)C)n2Cc1ccc(-c2ccccc2-c2nnn[nH]2)cc1 [L-158-817],1.8,> 100
"Cc1ccc(-c2ccccc2-c2nnn[nH]2)cc1 [L-158,507]",160,> 1000
"Oc1ccc2c3c(n(Cc4ccc(-c5ccccc5-c5nnn[nH]5)cc4)c2c1)C=CCC3 [L-809,370]",6,> 100
CCCc1nc2ccc(Cl)nc2n1Cc1ccc(-c2ccccc2-c2nnn[nH]2)cc1 [L-158-678],3.5,240
CCCCc1nc2ccc(O)cc2c(=O)n1Cc1ccc(-c2ccccc2-c2nnn[nH]2)cc1,1.9,> 100
"c1ccc(-c2ccccc2-c2nn[nH]n2)cc1 [L-809,022]",860,> 1000
